Results from patent US9758529B2, “Fused dihydro-4H-pyrazolo[5,1-C][1,4]oxazinyl compounds and analogs for treating CNS disorders” (Sunovion Pharmaceuticals Inc., priority 2015, dated 2017).
Counter-ions that a name gives are not always drawn.

What follows are compounds tested on mice (assay: Neuropharmacological Assay (SmartCube)). Details: i.p. 15 min before behavioral test; 3 doses, most efficacious dose(s) presented.
Type: in vivo

Structure (SMILES) | AD: ADHD (probability of class match) | AG: analgesic (probability of class match) | AX: anxiolytic (probability of class match) | CE: cognitive enhancer (probability of class match) | DP: anti-depressant (probability of class match) | HA: hallucinogen (probability of class match) | MS: mood stabilizer (probability of class match) | PS: anti-psychotic (probability of class match) | SD: sedative hypnotic (probability of class match) | UN: uncharacterized CNS activity (probability of class match)
CN(C)CC1OCCn2nc3ccc(F)cc3c21.Cl (centres unmarked) [Compound 8, 1-(9-fluoro-3,4-dihydro-1H-[1,4]oxazino[4,3-b]indazol-1-yl)-N,N-dimethylmethanaminium chloride] | + (LOQ≦ + <5%) | ++ (5%≦ ++ <25%) | ++ (5%≦ ++ <25%) | ++ (5%≦ ++ <25%) | +++ (25%≦ +++ <50%) | + (LOQ≦ + <5%) | + (LOQ≦ + <5%) | ++ (5%≦ ++ <25%) | + (LOQ≦ + <5%) | + (LOQ≦ + <5%)
CN1CCC2(C1)OCCn1nc3ccccc3c12.Cl (centres unmarked) [Compound 23, 1′-methyl-3,4-dihydrospiro[[1,4]oxazino[4,3-b]indazole-1,3′-pyrrolidin]-1′-ium chloride] | + (LOQ≦ + <5%) | ++ (5%≦ ++ <25%) | ++++ (50%≦ ++++) | ++ (5%≦ ++ <25%) | ++ (5%≦ ++ <25%) | + (LOQ≦ + <5%) | + (LOQ≦ + <5%) | + (LOQ≦ + <5%) | + (LOQ≦ + <5%) | + (LOQ≦ + <5%)
CN(CC1OCCn2nc3ccccc3c21)C1CC1 (centres unmarked) [Compound 22, N-((3,4-dihydro-1H-[1,4]oxazino[4,3-b]indazol-1-yl)methyl)-N-methylcyclopropanamine hydrogen chloride salt] | ++ (5%≦ ++ <25%) | + (LOQ≦ + <5%) | ++ (5%≦ ++ <25%) | + (LOQ≦ + <5%) | ++++ (50%≦ ++++) | ++ (5%≦ ++ <25%) | + (LOQ≦ + <5%) | + (LOQ≦ + <5%) | + (LOQ≦ + <5%) | ++ (5%≦ ++ <25%)
CN(C)C[C@H]1OCCn2nc3ccccc3c21.Cl [Compound 4, (R)-(3,4-dihydro-1H-[1,4]oxazino[4,3-b]indazol-1-yl)-N,N-dimethylmethanaminium chloride] | ++ (5%≦ ++ <25%) | ++ (5%≦ ++ <25%) | + (LOQ≦ + <5%) | ++ (5%≦ ++ <25%) | ++++ (50%≦ ++++) | ++ (5%≦ ++ <25%) | + (LOQ≦ + <5%) | + (LOQ≦ + <5%) | + (LOQ≦ + <5%) | ++ (5%≦ ++ <25%)
CNCC1OCCn2nc3ccccc3c21 (centres unmarked) [Compound I-4, (3,4-dihydro-1H-[1,4]oxazino[4,3-b]indazol-1-yl)-N-methylmethanamine] | ++ (5%≦ ++ <25%) | + (LOQ≦ + <5%) | +++ (25%≦ +++ <50%) | + (LOQ≦ + <5%) | ++++ (50%≦ ++++) | ++ (5%≦ ++ <25%) | + (LOQ≦ + <5%) | + (LOQ≦ + <5%) | ++ (5%≦ ++ <25%) | + (LOQ≦ + <5%)
c1ccc2c3n(nc2c1)CCOC3C1CCNCC1 (centres unmarked) [Compound 35, 4-(3,4-dihydro-1H-[1,4]oxazino[4,3-b]indazol-1-yl)piperidin-1-ium chloride] | + (LOQ≦ + <5%) | + (LOQ≦ + <5%) | + (LOQ≦ + <5%) | + (LOQ≦ + <5%) | + (LOQ≦ + <5%) | + (LOQ≦ + <5%) | + (LOQ≦ + <5%) | + (LOQ≦ + <5%) | + (LOQ≦ + <5%) | + (LOQ≦ + <5%)
CNCC1OCCn2nc3ccc(F)cc3c21 (centres unmarked) [Compound 7, 1-(9-fluoro-3,4-dihydro-1H-[1,4]oxazino[4,3-b]indazol-1-yl)-N-methylmethanaminium chloride] | + (LOQ≦ + <5%) | ++ (5%≦ ++ <25%) | + (LOQ≦ + <5%) | + (LOQ≦ + <5%) | ++++ (50%≦ ++++) | + (LOQ≦ + <5%) | + (LOQ≦ + <5%) | + (LOQ≦ + <5%) | + (LOQ≦ + <5%) | + (LOQ≦ + <5%)
CN(C)CC1OCCCn2nc3ccccc3c21.Cl (centres unmarked) [Compound 52, 1-(4,5-dihydro-1H,3H-[1,4]oxazepino[4,3-b]indazol-1-yl)-N,N-dimethylmethanaminium chloride] | + (LOQ≦ + <5%) | + (LOQ≦ + <5%) | ++ (5%≦ ++ <25%) | + (LOQ≦ + <5%) | ++ (5%≦ ++ <25%) | + (LOQ≦ + <5%) | + (LOQ≦ + <5%) | + (LOQ≦ + <5%) | + (LOQ≦ + <5%) | ++ (5%≦ ++ <25%)
CCNCC1OCCCn2nc3ccccc3c21.Cl (centres unmarked) [Compound 57, N-((4,5-dihydro-1H,3H-[1,4]oxazepino[4,3-b]indazol-1-yl)methyl)ethanaminium chloride] | + (LOQ≦ + <5%) | + (LOQ≦ + <5%) | + (LOQ≦ + <5%) | + (LOQ≦ + <5%) | + (LOQ≦ + <5%) | + (LOQ≦ + <5%) | + (LOQ≦ + <5%) | + (LOQ≦ + <5%) | + (LOQ≦ + <5%) | + (LOQ≦ + <5%)
CN1CCO[C@@H]([C@@H]2OCCn3nc4ccccc4c32)C1 [Compound 25, (2R)-2-((R)-3,4-dihydro-1H-[1,4]oxazino[4,3-b]indazol-1-yl)-4-methylmorpholin-4-ium chloride] | ++ (5%≦ ++ <25%) | ++ (5%≦ ++ <25%) | ++ (5%≦ ++ <25%) | + (LOQ≦ + <5%) | ++ (5%≦ ++ <25%) | + (LOQ≦ + <5%) | + (LOQ≦ + <5%) | + (LOQ≦ + <5%) | + (LOQ≦ + <5%) | + (LOQ≦ + <5%)

Same assay, conditions: i.p. 15 min before behavioral test; 3 doses, most efficacious dose(s) presented

Structure (SMILES) | XG: anxiogenic (probability of class match)
CN(C)CC1OCCn2nc3ccc(F)cc3c21.Cl (centres unmarked) [Compound 8, 1-(9-fluoro-3,4-dihydro-1H-[1,4]oxazino[4,3-b]indazol-1-yl)-N,N-dimethylmethanaminium chloride] | ++ (5%≦ ++ <25%)
CN1CCC2(C1)OCCn1nc3ccccc3c12.Cl (centres unmarked) [Compound 23, 1′-methyl-3,4-dihydrospiro[[1,4]oxazino[4,3-b]indazole-1,3′-pyrrolidin]-1′-ium chloride] | + (LOQ≦ + <5%)
CN(CC1OCCn2nc3ccccc3c21)C1CC1 (centres unmarked) [Compound 22, N-((3,4-dihydro-1H-[1,4]oxazino[4,3-b]indazol-1-yl)methyl)-N-methylcyclopropanamine hydrogen chloride salt] | + (LOQ≦ + <5%)
CN(C)C[C@H]1OCCn2nc3ccccc3c21.Cl [Compound 4, (R)-(3,4-dihydro-1H-[1,4]oxazino[4,3-b]indazol-1-yl)-N,N-dimethylmethanaminium chloride] | + (LOQ≦ + <5%)
CNCC1OCCn2nc3ccccc3c21 (centres unmarked) [Compound I-4, (3,4-dihydro-1H-[1,4]oxazino[4,3-b]indazol-1-yl)-N-methylmethanamine] | + (LOQ≦ + <5%)
c1ccc2c3n(nc2c1)CCOC3C1CCNCC1 (centres unmarked) [Compound 35, 4-(3,4-dihydro-1H-[1,4]oxazino[4,3-b]indazol-1-yl)piperidin-1-ium chloride] | + (LOQ≦ + <5%)
CNCC1OCCn2nc3ccc(F)cc3c21 (centres unmarked) [Compound 7, 1-(9-fluoro-3,4-dihydro-1H-[1,4]oxazino[4,3-b]indazol-1-yl)-N-methylmethanaminium chloride] | + (LOQ≦ + <5%)
CN(C)CC1OCCCn2nc3ccccc3c21.Cl (centres unmarked) [Compound 52, 1-(4,5-dihydro-1H,3H-[1,4]oxazepino[4,3-b]indazol-1-yl)-N,N-dimethylmethanaminium chloride] | + (LOQ≦ + <5%)
CCNCC1OCCCn2nc3ccccc3c21.Cl (centres unmarked) [Compound 57, N-((4,5-dihydro-1H,3H-[1,4]oxazepino[4,3-b]indazol-1-yl)methyl)ethanaminium chloride] | + (LOQ≦ + <5%)
CN1CCO[C@@H]([C@@H]2OCCn3nc4ccccc4c32)C1 [Compound 25, (2R)-2-((R)-3,4-dihydro-1H-[1,4]oxazino[4,3-b]indazol-1-yl)-4-methylmorpholin-4-ium chloride] | + (LOQ≦ + <5%)
